Test results reported in ChEMBL document CHEMBL2169878 (J Med Chem, 2012).
pIC50: −log10 of the molar value.

Assays:
Plasmodium falciparum [1] = test: Antiplasmodial activity against chloroquine-sensitive Plasmodium falciparum D10 infected in human RBC after 72 hrs by parasite lactate dehydrogenase assay; type: functional, organism-based; settings: D10, 72 h
Salmonella typhimurium [2] = test: Mutagenicity against Salmonella typhimurium TA98 assessed as revertants at 6 uM incubated for 90 mins followed by drug washout measured after 2 days relative to positive control; type: toxicity, organism-based; settings: salmonella enterica subsp. enterica serovar typhimurium, 1.5 h
Salmonella typhimurium [3] = test: Mutagenicity against Salmonella typhimurium TA100 assessed as revertants at 3 uM incubated for 90 mins followed by drug washout measured after 2 days relative to positive control; type: toxicity, organism-based; settings: salmonella enterica subsp. enterica serovar typhimurium, 1.5 h
Salmonella typhimurium [4] = test: Mutagenicity against Salmonella typhimurium TA100 assessed as revertants at 6 uM incubated for 90 mins followed by drug washout measured after 2 days relative to positive control; type: toxicity, organism-based; settings: salmonella enterica subsp. enterica serovar typhimurium, 1.5 h
[5] = target: T1, Chloroquine resistance transporter (Plasmodium falciparum) (UniProt Q9N623); test: Inhibition of chloroquine-resistant Plasmodium falciparum Dd2 CRT expressed in Xenopus laevis oocyte assessed as inhibition of [3H]chloroquine uptake at 100 uM measured from 1 to 2 hrs
T1 sequence (whole entry): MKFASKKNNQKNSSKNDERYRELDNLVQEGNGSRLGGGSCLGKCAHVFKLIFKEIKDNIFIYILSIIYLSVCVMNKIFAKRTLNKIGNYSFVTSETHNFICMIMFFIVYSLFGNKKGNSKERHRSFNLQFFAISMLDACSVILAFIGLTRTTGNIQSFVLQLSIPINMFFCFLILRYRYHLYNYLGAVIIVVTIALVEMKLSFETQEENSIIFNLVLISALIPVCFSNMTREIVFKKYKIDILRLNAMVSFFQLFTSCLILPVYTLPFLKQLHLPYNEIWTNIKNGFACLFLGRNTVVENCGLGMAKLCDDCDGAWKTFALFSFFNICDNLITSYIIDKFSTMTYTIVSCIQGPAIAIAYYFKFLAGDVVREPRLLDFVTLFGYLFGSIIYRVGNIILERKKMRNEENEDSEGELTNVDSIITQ

Salmonella typhimurium [6] = test: Mutagenicity against Salmonella typhimurium TA100 assessed as revertants at 13 uM incubated for 90 mins followed by drug washout measured after 2 days relative to positive control; type: toxicity, organism-based; settings: salmonella enterica subsp. enterica serovar typhimurium
Salmonella typhimurium [7] = test: Mutagenicity against Salmonella typhimurium TA100 assessed as revertants at 25 uM incubated for 90 mins followed by drug washout measured after 2 days relative to positive control; type: toxicity, organism-based; settings: salmonella enterica subsp. enterica serovar typhimurium
Salmonella typhimurium [8] = test: Mutagenicity against Salmonella typhimurium TA98 assessed as revertants at 3 uM incubated for 90 mins followed by drug washout measured after 2 days relative to positive control; type: toxicity, organism-based; settings: salmonella enterica subsp. enterica serovar typhimurium, 1.5 h
[9] = Cytotoxicity against human HepG2 cells after 24 hrs by neutral red dye uptake assay; type: cell-based; settings: read-out: TC50
Plasmodium falciparum [10] = test: Antiplasmodial activity against chloroquine-sensitive Plasmodium falciparum NF54 infected in human erythrocytes assessed as inhibition of [3H]hypoxanthine incorporation incubated for 48 hrs prior to [3H]hypoxanthine addition measured after 48 hrs by liquid scintillation counting; type: functional, organism-based
Salmonella typhimurium [11] = test: Mutagenicity against Salmonella typhimurium TA98 assessed as revertants at 13 uM incubated for 90 mins followed by drug washout measured after 2 days relative to positive control; type: toxicity, organism-based; settings: salmonella enterica subsp. enterica serovar typhimurium, 1.5 h
Plasmodium falciparum [12] = test: Antiplasmodial activity against chloroquine-resistant Plasmodium falciparum W2 infected in human RBC after 72 hrs by parasite lactate dehydrogenase assay; type: functional, organism-based; settings: W2, 72 h
Plasmodium falciparum [13] = test: Antiplasmodial activity against chloroquine-resistant Plasmodium falciparum K1 infected in human erythrocytes assessed as inhibition of [3H]hypoxanthine incorporation incubated for 48 hrs prior to [3H]hypoxanthine addition measured after 48 hrs by liquid scintillation counting; type: functional, organism-based
Salmonella typhimurium [14] = test: Mutagenicity against Salmonella typhimurium TA98 assessed as revertants at 50 uM incubated for 90 mins followed by drug washout measured after 2 days relative to positive control; type: toxicity, organism-based; settings: salmonella enterica subsp. enterica serovar typhimurium, 1.5 h
Salmonella typhimurium [15] = test: Mutagenicity against Salmonella typhimurium TA98 assessed as revertants at 25 uM incubated for 90 mins followed by drug washout measured after 2 days relative to positive control; type: toxicity, organism-based; settings: salmonella enterica subsp. enterica serovar typhimurium
[16] = Cytotoxicity against mouse NIH3T3 cells after 24 hrs by neutral red dye uptake assay; type: cell-based; settings: read-out: TC50
Salmonella typhimurium [17] = test: Mutagenicity against Salmonella typhimurium TA100 assessed as revertants at 50 uM incubated for 90 mins followed by drug washout measured after 2 days relative to positive control; type: toxicity, organism-based; settings: salmonella enterica subsp. enterica serovar typhimurium
Salmonella typhimurium [18] = test: Mutagenicity against Salmonella typhimurium TA98 assessed as revertants at 1.5 uM incubated for 90 mins followed by drug washout measured after 2 days relative to positive control; type: toxicity, organism-based; settings: salmonella enterica subsp. enterica serovar typhimurium, 1.5 h
Salmonella typhimurium [19] = test: Mutagenicity against Salmonella typhimurium TA100 assessed as revertants at 1.5 uM incubated for 90 mins followed by drug washout measured after 2 days relative to positive control; type: toxicity, organism-based; settings: salmonella enterica subsp. enterica serovar typhimurium, 1.5 h
Salmonella typhimurium [20] = test: Mutagenicity against Salmonella typhimurium TA98 assessed as revertants at 32 uM incubated for 90 mins followed by drug washout measured after 2 days relative to positive control; type: toxicity, organism-based; settings: salmonella enterica subsp. enterica serovar typhimurium, 1.5 h
Plasmodium falciparum [21] = test: Resistance ratio of IC50 for chloroquine-resistant Plasmodium falciparum W2 to IC50 for chloroquine-sensitive Plasmodium falciparum D10; type: functional
Salmonella typhimurium [22] = test: Mutagenicity against Salmonella typhimurium TA100 assessed as revertants at 1 uM incubated for 90 mins followed by drug washout measured after 2 days relative to positive control; type: toxicity, organism-based; settings: salmonella enterica subsp. enterica serovar typhimurium, 1.5 h
Salmonella typhimurium [23] = test: Mutagenicity against Salmonella typhimurium TA100 assessed as revertants at 32 uM incubated for 90 mins followed by drug washout measured after 2 days relative to positive control; type: toxicity, organism-based; settings: salmonella enterica subsp. enterica serovar typhimurium
Salmonella typhimurium [24] = test: Mutagenicity against Salmonella typhimurium TA98 assessed as revertants at 1 uM incubated for 90 mins followed by drug washout measured after 2 days relative to positive control; type: toxicity, organism-based; settings: salmonella enterica subsp. enterica serovar typhimurium
Salmonella typhimurium [25] = test: Mutagenicity against Salmonella typhimurium TA100 assessed as revertants at 4 uM incubated for 90 mins followed by drug washout measured after 2 days relative to positive control; type: toxicity, organism-based; settings: salmonella enterica subsp. enterica serovar typhimurium, 1.5 h
Salmonella typhimurium [26] = test: Mutagenicity against Salmonella typhimurium TA100 assessed as revertants at 9 uM incubated for 90 mins followed by drug washout measured after 2 days relative to positive control; type: toxicity, organism-based; settings: salmonella enterica subsp. enterica serovar typhimurium, 1.5 h
Plasmodium falciparum [27] = test: Resistance ratio of IC50 for chloroquine-resistant Plasmodium falciparum K1 to IC50 for chloroquine-sensitive Plasmodium falciparum NF54; type: functional
Salmonella typhimurium [28] = test: Mutagenicity against Salmonella typhimurium TA100 assessed as revertants at 16 uM incubated for 90 mins followed by drug washout measured after 2 days relative to positive control; type: toxicity, organism-based; settings: salmonella enterica subsp. enterica serovar typhimurium
Salmonella typhimurium [29] = test: Mutagenicity against Salmonella typhimurium TA98 assessed as revertants at 4 uM incubated for 90 mins followed by drug washout measured after 2 days relative to positive control; type: toxicity, organism-based; settings: salmonella enterica subsp. enterica serovar typhimurium
Salmonella typhimurium [30] = test: Mutagenicity against Salmonella typhimurium TA98 assessed as revertants at 8 uM incubated for 90 mins followed by drug washout measured after 2 days relative to positive control; type: toxicity, organism-based; settings: salmonella enterica subsp. enterica serovar typhimurium, 1.5 h
Salmonella typhimurium [31] = test: Mutagenicity against Salmonella typhimurium TA98 assessed as revertants at 16 uM incubated for 90 mins followed by drug washout measured after 2 days relative to positive control; type: toxicity, organism-based; settings: salmonella enterica subsp. enterica serovar typhimurium
Salmonella typhimurium [32] = test: Mutagenicity against Salmonella typhimurium TA100 assessed as revertants at 2 uM incubated for 90 mins followed by drug washout measured after 2 days relative to positive control; type: toxicity, organism-based; settings: salmonella enterica subsp. enterica serovar typhimurium
Salmonella typhimurium [33] = test: Mutagenicity against Salmonella typhimurium TA98 assessed as revertants at 2 uM incubated for 90 mins followed by drug washout measured after 2 days relative to positive control; type: toxicity, organism-based; settings: salmonella enterica subsp. enterica serovar typhimurium, 1.5 h

Fc1cc(C(Nc2ccnc3cc(Cl)ccc23)c2ccc(Cl)cc2)ccc1CN1CCCC1 (racemic)
pIC50 (Plasmodium falciparum [1]): 7.23 | Activity (Salmonella typhimurium [2]): 3% | Activity (Salmonella typhimurium [3]): 10% | Activity (Salmonella typhimurium [4]): 10% | inhibition [5]: 70% | Activity (Salmonella typhimurium [6]): 11% | Activity (Salmonella typhimurium [7]): 11% | Activity (Salmonella typhimurium [8]): 5% | CC50 at 24 h [9]: 12 µM | pIC50 (Plasmodium falciparum [10]): 7.89 | Activity (Salmonella typhimurium [11]): 3% | pIC50 (Plasmodium falciparum [12]): 7.35 | pIC50 (Plasmodium falciparum [13]): 7.70 | Activity (Salmonella typhimurium [14]): 8% | Activity (Salmonella typhimurium [15]): 11% | CC50 at 24 h [16]: 25 µM | Activity (Salmonella typhimurium [17]): 11% | Activity (Salmonella typhimurium [18]): 4% | Activity (Salmonella typhimurium [19]): 12%

Clc1cccc(C(Nc2ccnc3cc(Cl)ccc23)c2ccc(CN3CCCC3)cc2)c1 (racemic)
Activity (Salmonella typhimurium [20]): 2% | Ratio IC50 (Plasmodium falciparum [21]): 1 | Activity (Salmonella typhimurium [22]): 5% | Activity (Salmonella typhimurium [23]): 2% | Activity (Salmonella typhimurium [24]): 2% | Activity (Salmonella typhimurium [25]): 0% | inhibition [5]: 70% | Activity (Salmonella typhimurium [26]): 5% | Ratio IC50 (Plasmodium falciparum [27]): 1.3 | Activity (Salmonella typhimurium [28]): 10% | CC50 at 24 h [9]: 31 µM | Activity (Salmonella typhimurium [29]): 0% | Activity (Salmonella typhimurium [30]): 6% | Activity (Salmonella typhimurium [31]): 14% | Activity (Salmonella typhimurium [32]): 2% | Activity (Salmonella typhimurium [33]): 2% | CC50 at 24 h [16]: 9 µM
